Reference: PMC7891696, “The molecular targets of ivermectin and lotilaner in the human louse Pediculus humanus humanus: New prospects for the treatment of pediculosis” (PLoS Pathogens, 2021)
Like-named read-outs stand apart in the source and are kept apart here.

What was measured:
[1] = system: human adult body lice (Pediculus humanus humanus); experiment: Toxicity bioassay on adult human body lice (filter paper contact, survival and immobilization); assay type: in vivo; conditions: for lice killed or immobilized (death or knockdown rate): adult lice n = 44
Method: (§1) The colony of human body lice (Pediculus humanus humanus) were provided by Kosta Y. Mumcuoglu from the Kuvin Center for the Study of Infectious and Tropical Diseases, Hebrew University-Hadassah Medical School, Jerusalem, Israel. This laboratory-reared colony adapted to rabbit blood were fed four times per week for 20–30 min on rabbits and maintained at 30 ± 1°C and 60–70% relative humidity without exposure to any drugs. […] Nits (50 to 190 per condition) were incubated with lotilaner or ivermectin and hatching was monitored between six and nine days. Water and solution of 1% DMSO were used as negative controls. Pictures were recorded with a Motic Digital Microscope 143 Series and the Motic Image Plus 3.0 software.

Phh-RDL [2] = target: T1, Phh-RDL (Pediculus humanus humanus, UniProt A0A894T8E6); experiment: Two-electrode voltage-clamp on Xenopus laevis oocytes expressing Phh-RDL; assay type: cell-based; conditions: for concentration at which GABA-elicited currents were completely inhibited: 100 μM GABA
T1 sequence (A0A894T8E6 entry or part of it): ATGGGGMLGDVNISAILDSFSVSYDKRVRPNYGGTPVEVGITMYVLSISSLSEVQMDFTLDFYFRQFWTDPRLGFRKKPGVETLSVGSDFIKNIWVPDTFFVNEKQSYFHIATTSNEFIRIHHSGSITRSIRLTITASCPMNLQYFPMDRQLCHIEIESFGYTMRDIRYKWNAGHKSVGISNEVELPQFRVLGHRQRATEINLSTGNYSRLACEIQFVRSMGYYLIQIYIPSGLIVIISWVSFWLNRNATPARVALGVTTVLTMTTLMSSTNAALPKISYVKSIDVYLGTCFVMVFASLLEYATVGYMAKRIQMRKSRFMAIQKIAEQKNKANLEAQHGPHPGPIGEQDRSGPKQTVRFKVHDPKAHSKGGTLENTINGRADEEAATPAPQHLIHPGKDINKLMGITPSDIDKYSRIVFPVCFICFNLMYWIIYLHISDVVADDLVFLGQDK
Method: (§2) Defolliculated Xenopus laevis oocytes were purchased from Ecocyte Bioscience and maintained in incubation solution (100 mM NaCl, 2 mM KCl, 1.8 mM CaCl2.2H2O, 1 mM MgCl2.6H2O, 5 mM HEPES, 2.5 mM C3H3NaO3, pH 7.5 supplemented with penicillin 100 U/mL and streptomycin 100 μg/mL) at 19°C. Each oocyte was microinjected with 57 ng of cRNA encoding Phh-GluCl or Phh-RDL using a Drummond nanoject II microinjector. Three to five days after cRNA injection, two-electrode voltage-clamp recordings were performed with an oocyte clamp OC-725C amplifier (Warner instrument) at a holding potential of -80mV or -60 mV to assess the expression of the GluCl or RDL channels. Currents were recorded and analyzed using the pCLAMP 10.4 package (Molecular Devices). Concentration-response relationships for agonists were carried out by challenging oocytes with 10 s applications of increasing concentrations of compounds. […] For Phh-GluCl, the dose-response relationship for ivermectin was performed by applying each concentration of ivermectin for 20–30 s. Each oocyte received only one ivermectin concentration (≤ 30 nM) followed with a high ivermectin concentration (≥ 100 nM). Data were normalized to a first 100 μM glutamate apllication. […] Concentration-response curves for agonists were fitted with the following equation: Y=100/1+10^H(logEC50−X)
Where Y is the normalized response, H is the Hill slope and X is the logarithm of concentration. The same equation was used for the concentration-response curves for antagonists by replacing logEC50 by logIC50. Results are expressed as mean +/- SEM and statistical analysis were performed using One-Way ANOVA with Tukey’s Multiple Comparisons Test. […] The corresponding concentration response curves were fitted using the following four parameter Hill equation: Y=Bottom+(Top−Bottom)/1+10^H(LogEC50−X)

nits of human body lice = experiment: Nit hatching test; assay type: in vivo, Pediculus humanus humanus; conditions: 100 μM, hatching between six and nine days after application, compared with water and 1% DMSO
Method: as §1

Phh-GluCl = Phh-GluCl (Pediculus humanus humanus, UniProt A0A894TL71); experiment: Two-electrode voltage-clamp on Xenopus laevis oocytes expressing Phh-GluCl; assay type: cell-based
Chain of Phh-GluCl (A0A894TL71 entry or part of it): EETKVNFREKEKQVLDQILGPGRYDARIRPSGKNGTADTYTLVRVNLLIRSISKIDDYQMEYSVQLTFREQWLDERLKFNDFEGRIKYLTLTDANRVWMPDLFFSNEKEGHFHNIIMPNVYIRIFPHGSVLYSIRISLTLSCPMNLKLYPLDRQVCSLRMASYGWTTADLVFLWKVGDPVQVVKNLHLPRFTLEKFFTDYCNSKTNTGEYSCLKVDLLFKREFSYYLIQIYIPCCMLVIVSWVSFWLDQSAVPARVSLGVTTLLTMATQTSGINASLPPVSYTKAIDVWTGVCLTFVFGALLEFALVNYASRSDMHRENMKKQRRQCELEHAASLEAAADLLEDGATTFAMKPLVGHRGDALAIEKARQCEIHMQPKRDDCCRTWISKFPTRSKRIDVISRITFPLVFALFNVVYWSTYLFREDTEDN
Method: as §2

Phh-RDL [3] = target: T1, Phh-RDL; experiment: Two-electrode voltage-clamp on Xenopus laevis oocytes expressing Phh-RDL; assay type: cell-based; conditions: 1 μM ivermectin, 90 s application
[4] = antagonism of 100 μM GABA current, 90 s preincubation, read-out: IC50

## N#Cc1nn(-c2c(Cl)cc(C(F)(F)F)cc2Cl)c(N)c1[S+]([O-])C(F)(F)F (stereo not drawn) [fipronil]
[1]; 100 μM, 24 h
  lice killed or immobilized (death or knockdown rate): 91%
Phh-RDL [2]
  IC50: 138 ± 35.1 nM
  agonist effect: no agonist effect

## Cc1cc(C2=NO[C@@](c3cc(Cl)c(Cl)c(Cl)c3)(C(F)(F)F)C2)sc1C(=O)NCC(=O)NCC(F)(F)F [lotilaner]
[1]; 1 μM, 24 h, adult lice
  lice killed: 14%
[1]; 100 μM, 3 h, adult lice
  death rate of lice: death of all lice
Nits of human body lice
  effect on nit hatching: absence of efficacy
Phh-GluCl; 30 μM
  concentration without effect on Phh-GluCl (30 μM) as multiple of the IC50 for Phh-RDL: 737 fold
Phh-GluCl; 1 to 30 μM
  agonist effect (current elicited): did not elicit any current
Phh-GluCl; 1 to 30 μM, co-application with 100 μM glutamate
  inhibitory effect on glutamate-evoked currents: no significant inhibitory effect
Phh-RDL [2]
  agonist effect: no agonist effect
Phh-RDL [2]; competitive assay, GABA dose-response with 1 nM and 10 nM lotilaner
  type of inhibition: non-competitive antagonist
Phh-RDL [2]; read-out: IC50
  IC50: 40.7 nM

## N[C@@H](CCC(=O)O)C(=O)O [glutamate]
Phh-GluCl
  EC50: 9300 nM
Phh-GluCl; glutamate concentration-response curve
  Hill coefficient: 1.9 +/- 0.5

## ivermectin
[1]; 10 μM, 24 h, adult lice
  death rate of lice: 100%
[1]; 100 μM, 3 h, adult lice
  death rate of lice: 30%
[1]; 100 μM, 24 h
  lice killed or immobilized (death or knockdown rate): 100%
Nits of human body lice
  effect on nit hatching: absence of efficacy
Phh-GluCl
  lowest concentration at which slow activation of the receptor was observed: 10 nM
  reversibility of the agonist effect: not reversible
Phh-GluCl; 1 μM ivermectin
  current as % of the 1 mM glutamate-elicited current: 86.5 +/- 8.2%
Phh-GluCl; agonist, normalized to a first 100 μM glutamate application, read-out: EC50
  EC50: 78.5 ± 30.2 nM
Phh-RDL [2]
  IC50 on RDL receptor relative to EC50 for Phh-GluCl: 4 fold
  concentration at which GABA-elicited currents were completely inhibited: 3 µM
Phh-RDL [2]; 100 nM ivermectin coapplied with 3 μM GABA
  effect on GABA current at low concentration (potentiation): increased the current amplitude
Phh-RDL [2]; 1 μM ivermectin
  mode of action at higher concentration: both an agonistic and antagonistic effect
Phh-RDL [2]; 0.3 to 30 μM, 90 seconds
  reversibility of the currents elicited: not reversible
Phh-RDL [2]; [4]
  IC50: 342 ± 14 nM
Phh-RDL [3]
  maximum agonist effect as % of the 1 mM response: 7.9 +/- 1.3%

## picrotoxin
[1]; 100 μM, 24 h
  lice killed or immobilized (death or knockdown rate): not efficient to kill the lice
Phh-RDL [2]
  agonist effect: no agonist effect
  concentration at which GABA-elicited currents were completely inhibited: 30 µM
Phh-RDL [2]; [4]
  IC50: 1160 ± 230 nM

## NCCCC(=O)O [GABA, γ-aminobutyric acid]
Phh-RDL [2]
  EC50: 16000 nM
Phh-RDL [2]; GABA concentration-response curve
  Hill coefficient: 2.3 +/- 0.1
Phh-RDL [2]; read-out: maximum current amplitude
  Emax: 97.95 ± 0.69%
